Columns and labels:
[1] = tested on: hypertensive male rats of the Akamoto-Aoki line; assay: Variation of arterial pressure upon intraperitoneal administration to hypertensive rats; type: in vivo
Procedure: The study of hypotensive properties of the compounds of this invention has been carried out of hypertensive male rats of the Akamoto-Aoki line aged 25-30 weeks. The animals were divided into groups (7-10 rats in each) and for 2 weeks before the beginning of the experiment they were subjected to an every-day training for adaptation to the unit for measurements of the arterial pressure. The systolic and diastolic arterial pressure were measured indirectly on the tail artery. The level of the arterial pressure prior to administration of the test compounds was measured by way of a triple determination thereof--2 days, one day and right before the administration of the preparation. The compounds were administered intraperitoneally in the form of a 2.5% aqueous solution or a 2.5% suspension in Twin-80 in the dose of 50 mg/kg. The measurement of the arterial pressure was effected 30 minutes, 1, 2, 3 and 4 hours and in some cases 24 hours after the administration of the preparation. For a number of compounds featuring a high efficiency, also determined was the dose causing reduction of the arterial pressure by 30% as compared with the starting level (ED30). The statistical processing of the data obtained was carried out using the Student certainty criterion.

[2] = tested on: spontaneously hypertensive rats of the Akamoto-Aoki line; assay: Hypotensive activity on spontaneously hypertensive rats at a single peroral administration; type: in vivo; conditions: for Systolic arterial pressure: ethyl 40 mg/kg (initial 198), benzyl 40 mg/kg (initial 196)
[3] = tested on: spontaneously hypertensive rats of the Akamoto-Aoki line; assay: Systolic arterial pressure of spontaneously hypertensive rats upon a repeated peroral administration; type: in vivo
Procedure: Thus, after a four-days course of administration (once a day, per os) of the compounds according to the present invention an essential reduction of the arterial pressure in the test animals is observed which is not returned to the initial level even an expiration of four days after discontinuation of the preparation administration, whereas the hypotensive effect of nifedipine is manifested for only 8 hours.

[4] = Acute toxicity upon intraperitoneal administration to white mice; type: in vivo; conditions: mouse, in vivo, ip, 14 days observation, average values with confidential limits at P=0.05
Procedure: (§1) The acute toxicity of the compounds according to the present invention was studied on white mice of both sexes with a mass of 20-25 g. A saturated aqueous solution of the compounds or a suspension in Tween-80 was administered to the animals intraperitoneally. The observation over the animals was carried out for 14 days. The results obtained were processed following the Litchfield-Wilkoxon method. As it follows from the data shown in Table 5 hereinbelow, the studied compounds have a very low acute toxicity, thus providing a large spectrum of the therapeutic effect.

white mice = assay: as above; type: in vivo; conditions: i.p.
Procedure: as §1

[5] = tested on: arrhythmia caused by introduction of calcium chloride; assay: Antiarrhythmic activity on the model of arrhythmia caused by calcium chloride (antagonism towards calcium); type: in vivo, mice; conditions: for Dose of calcium chloride causing arrhythmia: control 85.0; for Dose of calcium chloride causing heart arrest: control 100.0
Procedure: In experiments on white mice with a mass of 18-25 g narcotized with urethane an electrocardiogram was recorded in the second standard lead. A 2% solution of calcium chloride was introduced into the tail vein at a constant rate (0.01 ml for 2 seconds). The dose of calcium chloride causing arrhythmia and the dose causing heart arrest were determined. In experimental groups the test compounds were administered 20-40 minutes prior to the beginning of the experiment intraperitoneally.

[6] = tested on: adrenaline-caused arrhythmia; assay: Adrenaline-caused arrhythmia in narcotized guinea pigs; type: in vivo; conditions: for ED50: Cavia porcellus, iv, intravenously, dose giving antiarrhythmic effect in 50% of the experiments
Procedure: A further study of the antiarrhythmic activity of the compounds according to the present invention was connected with the determination of their effect on experimental arrhythmia induced by adrenaline.
Guinea pigs of both sexes with a mass of 400-700 g were narcotized with urethane (1,500 mg/kg intraperitoneally) The standard second-lead electrocardiogram was recorded. Arrhythmia was caused by a rapid injection (intravenously) of adrenaline in the dose of […]. To find out the protective antiarrhythmia effect of the compounds according to the present invention, the number of animals in which the total number of ectopic contractions was reduced by 50% and more as compared to the control experiments was recorded. […] The results obtained in this study of the antiarrhythmic properties of some of the compounds according to the present invention and novocainamide on the adrenaline model of arrhythmia are shown in Table 7.

[7] = 30 minutes, 50 mg/kg i.p. (nifedipine 1 mg/kg i.p.)
[8] = 1 hour, 50 mg/kg i.p. (nifedipine 1 mg/kg i.p.)
[9] = 2 hours, 50 mg/kg i.p. (nifedipine 1 mg/kg i.p.)
[10] = 4 hours, 50 mg/kg i.p. (nifedipine 1 mg/kg i.p.)
[11] = 1 hour after single p.o., ethyl 40 mg/kg, benzyl 40 mg/kg
[12] = 3 hours after single p.o., allyl 50 mg/kg (initial 184)
[13] = 3 hours after single p.o., ethyl 40, allyl 50, benzyl 40 mg/kg
[14] = 5 hours after single p.o., allyl 50 mg/kg (initial 184)
[15] = 5 hours after single p.o., ethyl 40, allyl 50, benzyl 40 mg/kg
[16] = 24 hours after single p.o., allyl 50 mg/kg (initial 184)
[17] = 24 hours after single p.o., ethyl 40, allyl 50, benzyl 40 mg/kg
[18] = after four-days p.o. course, benzyl 40 mg/kg, allyl 50 mg/kg, nifedipine dose not given
[19] = p.o. once a day, benzyl 40 mg/kg, allyl 50 mg/kg, nifedipine dose not given
[20] = p.o., benzyl 40 mg/kg, allyl 50 mg/kg, nifedipine dose not given

C[N+](C)(Cc1ccccc1)NCCC(=O)[O-] [3-(2,2-dimethyl-2-benzylhydrazinium)propionate]
Average variation of the diastolic arterial pressure [1, 7]: -14 % of the initial | Average variation of the systolic arterial pressure [1, 7]: -14 % of the initial | Average variation of the diastolic arterial pressure [1, 8]: -14 % of the initial | Average variation of the systolic arterial pressure [1, 8]: -14 % of the initial | Average variation of the diastolic arterial pressure [1, 9]: -21 % of the initial | Average variation of the systolic arterial pressure [1, 9]: -15 % of the initial | Average variation of the diastolic arterial pressure [1, 10]: -21 % of the initial | Average variation of the systolic arterial pressure [1, 10]: -14 % of the initial | Average variation of the diastolic arterial pressure ([1]; 24 hours, 50 mg/kg i.p.): -15 % of the initial | Average variation of the systolic arterial pressure ([1]; 24 hours, 50 mg/kg i.p.): -9 % of the initial | Systolic arterial pressure ([2]; 1 hour after single p.o.): 155 mm Hg | Systolic arterial pressure, percent in parentheses (decrease from initial) [2, 11]: 21% | Systolic arterial pressure [2, 12]: 150 mm Hg | Systolic arterial pressure, percent in parentheses (decrease from initial) [2, 13]: 23% | Systolic arterial pressure [2, 14]: 153 mm Hg | Systolic arterial pressure, percent in parentheses (decrease from initial) [2, 15]: 22% | Systolic arterial pressure [2, 16]: 168 mm Hg | Systolic arterial pressure, percent in parentheses (decrease from initial) [2, 17]: 14% | Systolic arterial pressure, 5th day [3, 18]: 166 mm Hg | Systolic arterial pressure, 8th day [3, 18]: 157 mm Hg | Systolic arterial pressure, 10th day [3, 18]: 177.8 mm Hg | Systolic arterial pressure, 1st day after administration ([3]; p.o. once a day, benzyl 40 mg/kg (initial 195.8), allyl 50 mg/kg (initial 176.6), nifedipine dose not given (initial 184.0)): 148.6 mm Hg | Systolic arterial pressure, 2nd day before administration [3, 19]: 167.8 mm Hg | Systolic arterial pressure, 3rd day after administration [3, 19]: 157.4 mm Hg | Systolic arterial pressure, 4th day after administration [3, 19]: 155 mm Hg | Systolic arterial pressure, 4th day before administration [3, 19]: 156 mm Hg | Systolic arterial pressure, 3rd day before administration ([3]; p.o. once a day, benzyl 40 mg/kg, nifedipine dose not given): 153 mm Hg | Percent in parentheses (change of systolic pressure from initial), 1st day after administration [3, 20]: 24% | Percent in parentheses (change of systolic pressure from initial), 2nd day before administration [3, 20]: 14% | Percent in parentheses (change of systolic pressure from initial), 3rd day after administration [3, 20]: 20% | Percent in parentheses (change of systolic pressure from initial), 4th day after administration [3, 20]: 21% | Percent in parentheses (change of systolic pressure from initial), 4th day before administration [3, 20]: 20% | Percent in parentheses (change of systolic pressure from initial), 5th day [3, 20]: 15% | Percent in parentheses (change of systolic pressure from initial), 8th day [3, 20]: 20% | Percent in parentheses (change of systolic pressure from initial), 10th day [3, 20]: 9% | Percent in parentheses (change of systolic pressure from initial), 3rd day before administration ([3]; p.o., benzyl 40 mg/kg, nifedipine dose not given): 22% | LD50 at 336 h [4]: 8100 mg/kg | Relative toxicity with respect to quinidine (LD50 / LD50 of quinidine) (white mice): 51.9 | Dose of calcium chloride causing arrhythmia ([5]; compound dose 5 mg/kg i.p.): 90.9 | Dose of calcium chloride causing heart arrest ([5]; compound dose 5 mg/kg i.p.): 103.0 | Dose of calcium chloride causing arrhythmia ([5]; compound dose 25 mg/kg i.p.): 111.0 | Dose of calcium chloride causing heart arrest ([5]; compound dose 25 mg/kg i.p.): 112.0

CC[N+](C)(C)NCCC(=O)[O-] [3-(2,2-dimethyl-2-ethylhydrazinium)propionate monohydrate]
Average variation of the diastolic arterial pressure [1, 7]: -2 % of the initial | Average variation of the systolic arterial pressure [1, 7]: -5 % of the initial | Average variation of the diastolic arterial pressure [1, 8]: -17 % of the initial | Average variation of the systolic arterial pressure [1, 8]: -11 % of the initial | Average variation of the diastolic arterial pressure [1, 9]: -22 % of the initial | Average variation of the systolic arterial pressure [1, 9]: -13 % of the initial | Average variation of the diastolic arterial pressure [1, 10]: -23 % of the initial | Average variation of the systolic arterial pressure [1, 10]: -18 % of the initial | Average variation of the diastolic arterial pressure ([1]; 24 hours, 50 mg/kg i.p.): -25 % of the initial | Average variation of the systolic arterial pressure ([1]; 24 hours, 50 mg/kg i.p.): -18 % of the initial | Systolic arterial pressure ([2]; 1 hour after single p.o.): 185 mm Hg | Systolic arterial pressure, percent in parentheses (decrease from initial) [2, 11]: 7% | Systolic arterial pressure [2, 12]: 190 mm Hg | Systolic arterial pressure, percent in parentheses (decrease from initial) [2, 13]: 4% | Systolic arterial pressure [2, 14]: 193 mm Hg | Systolic arterial pressure, percent in parentheses (decrease from initial) [2, 15]: 3% | Systolic arterial pressure [2, 16]: 191 mm Hg | Systolic arterial pressure, percent in parentheses (decrease from initial) [2, 17]: 4% | LD50 at 336 h [4]: 2300 mg/kg | Relative toxicity with respect to quinidine (LD50 / LD50 of quinidine) (white mice): 14.7 | Dose of calcium chloride causing arrhythmia ([5]; compound dose 5 mg/kg i.p.): 83.0 | Dose of calcium chloride causing heart arrest ([5]; compound dose 5 mg/kg i.p.): 95.0 | Dose of calcium chloride causing arrhythmia ([5]; compound dose 25 mg/kg i.p.): 91.0 | Dose of calcium chloride causing heart arrest ([5]; compound dose 25 mg/kg i.p.): 98.0 | Efficiency (animals with ectopic contractions reduced by 50% and more) ([6]; 3.0 mg/kg intravenously): 1/4 | Efficiency (animals with ectopic contractions reduced by 50% and more) ([6]; 10.0 mg/kg intravenously): 2/4 | Efficiency (animals with ectopic contractions reduced by 50% and more) ([6]; 20.0 mg/kg intravenously): 4/5 | ED50 [6]: 8.2 mg/kg

C[N+](C)(CCc1ccccc1)NCCC(=O)[O-] [3-(2,2-dimethyl-2-phenylethylhydrazinium)propionate dihydrate]
LD50 at 336 h [4]: 1850 mg/kg | Relative toxicity with respect to quinidine (LD50 / LD50 of quinidine) (white mice): 11.8 | Dose of calcium chloride causing arrhythmia ([5]; compound dose 5 mg/kg i.p.): 88.7 | Dose of calcium chloride causing heart arrest ([5]; compound dose 5 mg/kg i.p.): 115.6 | Dose of calcium chloride causing arrhythmia ([5]; compound dose 15 mg/kg i.p.): 110.5 | Dose of calcium chloride causing heart arrest ([5]; compound dose 15 mg/kg i.p.): 142.5 | Efficiency (animals with ectopic contractions reduced by 50% and more) ([6]; 10.0 mg/kg intravenously): 3/5 | Efficiency (animals with ectopic contractions reduced by 50% and more) ([6]; 20.0 mg/kg intravenously): 4/5 | ED50 [6]: 7.8 mg/kg

CCN(CC)CCNC(=O)c1ccc(N)cc1 [Novocainamide, reference compound]
LD50 at 336 h [4]: 290 mg/kg | Relative toxicity with respect to quinidine (LD50 / LD50 of quinidine) (white mice): 1.85 | Dose of calcium chloride causing arrhythmia ([5]; compound dose 10 mg/kg i.p.): 116.0 | Dose of calcium chloride causing heart arrest ([5]; compound dose 10 mg/kg i.p.): 120.0 | Dose of calcium chloride causing arrhythmia ([5]; compound dose 30 mg/kg i.p.): 127.0 | Dose of calcium chloride causing heart arrest ([5]; compound dose 30 mg/kg i.p.): 138.0 | Efficiency (animals with ectopic contractions reduced by 50% and more) ([6]; 2.5 mg/kg intravenously): 1/5 | Efficiency (animals with ectopic contractions reduced by 50% and more) ([6]; 5.0 mg/kg intravenously): 1/5 | Efficiency (animals with ectopic contractions reduced by 50% and more) ([6]; 10.0 mg/kg intravenously): 3/5 | Efficiency (animals with ectopic contractions reduced by 50% and more) ([6]; 20.0 mg/kg intravenously): 5/5 | ED50 [6]: 7.6 mg/kg

— US4704403A, “3-(2,2,2-trisubstituted hydrazinium) propionates” (priority 1983, dated 1987)
